{"source": "patent US20220054513A1", "about": "“COMBINATION COMPOSITIONS COMPRISING A BETA-LACTAMASE INHIBITOR” (VenatoRx Pharmaceuticals, Inc., priority 2018, published 2022)", "system": "cefepime-resistant clinical isolates of Enterobacteriaceae and P. aeruginosa", "assay": "neutropenic murine thigh infection model, human simulated regimens", "assay_type": "in vivo, mice", "conditions": "human simulated regimen (HSR) of 2 g cefepime alone q8 h; at 24 h; 30 strains", "description": "The 2 g:0.5 g dose of cefepime:Compound 1 which is planned for clinical efficacy studies is supported by neutropenic murine thigh infection model studies using 30 cefepime-resistant clinical isolates of Enterobacteriaceae and P. aeruginosa."}
{"smiles": "CO/N=C(\\C(=O)N[C@@H]1C(=O)N2C(C(=O)[O-])=C(C[N+]3(C)CCCC3)CS[C@H]12)c1csc(N)n1", "note": "[FEP, cefepime]", "values": [{"measurement": "growth on average compared to the T=0 control", "value": "approximately 2.7 log10 CFU/thigh"}]}
